Results published in patent US9630991B2, “βsheet tapes ribbons in tissue engineering” (University of Leeds, priority 2002, dated 2017).
Where a SMILES comes first, the peptide text is derived from it. [ ]: non-standard residue; d: D form. Orn = NCCC[C@H](N)C(=O)O

Tests used:
[1] = Fibril dimensions measured from TEM images; type: physicochemical; details: for L, fibril contour length / h, twist pitch / l, fibril persistence length / wn, width of the fibril at its narrowest point / ww, width of the fibril at its widest point: physiological conditions, TEM
Procedure: For, electron microscopy, samples were examined using a Phillips CM10 TEM at 80-100 kV accelerating voltage. Gels were diluted to a peptide concentration of 20 μM seconds before application to a glow-discharged, carbon-coated, copper grid followed by coating with uranyl acetate solution (4% w/v in water).
The dimensions of the fibrils formed by these peptides are given in Table 2, and TEM images from which these measurements were obtained are shown in FIGS. 6A-6D. These dimensions are—the length of a peptide fibril (contour length, L), the length of a peptide fibril before it curves (persistence length, l), the length of a full twist of a peptide fibril (twist pitch, h) the width of a fibril at its widest point (ww) and the width of the fibril at its narrowest point as it twists (wn).

L929 murine fibroblasts = assay: Contact cytotoxicity testing; type: cell-based; details: peptide gels in culture with L929 fibroblasts
Description: L929 murine fibroblasts growing in contact with the negative collagen control are shown in FIG. 5B and the positive control of cyanoacrylate adhesive is shown in FIG. 5A.

[2] = Net charge of peptide at pH 7.5 in physiological solution; type: physicochemical; details: per peptide, pH 7.5, physiological solution
L929 fibroblast cells = assay: Cell density in peptide gels by ATPLite assay; type: cell-based, murine
Description: After establishing that the peptides tested were not cytotoxic when placed in culture with L929 fibroblast cells, the next stage was assessing the suitability of the collagen peptide gels for use in supporting cell proliferation.

[3] = Self-assembly and gel formation in physiological solution / cell media; type: physicochemical
[4] = test system: tissue surrounding the injection site; parameters: species or system mice; details: mouse, in vivo
Description: Injection of P11-3 and P11-8 peptide solutions in cell media in mice has shown no effect of the presence of the peptide in the tissue surrounding the injection site as judged by histology after two and eight weeks following the peptide injection.

[5] = Self-assembly and gel formation in physiological solution / cell media; type: physicochemical; remark: listed apart in the source
Description: A large number (dozens) of systematically varied peptides (typically 7-30 residues long) have been studied for soluble polymer and gel formation in cell media. […] Only peptides with a approximate net +2 or −2 charge per peptide at physiological pH=7.5, were able to form soluble polymers and gel cell media (The amount of net charge necessary per peptide to keep its polymers soluble in cell media will vary depending on the overall surface properties and solubility of the peptide tapes it forms). […] These peptides retained a predominantly monomeric state and their solutions in cell media were fluids up to around 40 mg/ml peptide concentration.
The rationally designed peptide P11-8 (Tables 1A and 1C) was dissolved in 145 mM NaCl, pH˜7.5 aqueous solution (the ionic strength and pH values of the solution were similar to those present in cell culture medium) or it was added directly in cell culture medium.
The fibrils of P11-8 entwined partly with each other forming a three dimensional network and turned the peptide solution in cell media into a homogeneous self-supporting gel at peptide concentration higher than 15 mg/ml.
The gel could be temporarily broken by mechanical agitation. The time it took the gel to reform depended on the peptide concentration, ranging from seconds for a 35 mg/ml peptide gel, to hours for a 15 mg/ml peptide gel.

[6] = Geometrical sizes from X-ray diffraction data and molecular modelling; type: physicochemical
Description: FIG. 2. Model of hierarchical self-assembly of beta-sheet forming peptides. Each peptide in beta-strand conformation, is depicted as a chiral rod-like unit (a). Local arrangements (c-f) and the corresponding global equilibrium conformations (c′-f′) for the hierarchical self-assembling structures formed in solutions of chiral molecules (a), which have complementary donor and acceptor groups, shown by arrows, via which they interact and align to form tapes (c). The black and the white surfaces of the rod (a) are reflected in the sides of the helical tape (c) which is chosen to curl towards the black side (c′). The outer sides of the twisted ribbon (d), of the fibril (e) and of the fibre (f) are all white. One of the fibrils in the fibre (f′) is drawn with darker shade for clarity. (e) & (f) show the front views of the edges of fibrils and fibres, respectively. Geometrical sizes (the numbers in parentheses show the values of the corresponding geometric sizes for P11-I and P11-II peptides, based on X-ray diffraction data and molecular modelling): inter-rod separation in a beta-sheet tape b2 (b2=0.47 nm); tape width, equal to the length of a rod, b1 (b1=4 nm); inter-ribbon distance in the fibril, α (α=1.6-2 nm for P11-I, and α=2-2.4 nm for P11-II).

[7] = Isotropic to nematic transition concentration; type: physicochemical; details: ribbons of P11-1, fibrils of P11-2
Procedure: We have also shown that above a certain peptide concentration cI/N (isotropic to nematic transition concentration) the semi-rigid ribbons, fibrils and fibres can align and thus transform their initially isotropic solution into a nematic liquid crystalline solution. The transition of the solution to the nematic liquid crystalline state happens at lower concentrations for more rigid polymers. For example, the nematic transition for solutions of ribbons of P11-1 peptide occurs at cI/N≈13 mM, whilst the nematic transition for solutions of the much more rigid fibrils of P11-2 peptide occurs at cI/N≈0.9 mM.

[8] = Persistence length of tapes, ribbons and fibrils in water; type: physicochemical
Description: The tapes, ribbons, fibrils and fibres are increasingly more rigid structures.

[9] = 145 mM NaCl, pH~7.5 or cell culture medium

| Compound | L, fibril contour length [1] | h, twist pitch [1] | l, fibril persistence length [1] | wn, width of the fibril at its narrowest point [1] | ww, width of the fibril at its widest point [1] | contact cytotoxicity (L929 murine fibroblasts) | Net charge at pH 7.5 [2] | further results |
| --- | --- | --- | --- | --- | --- | --- | --- | --- |
| CC(=O)N[C@@H](CC(N)=O)C(=O)N[C@@H](CC(N)=O)C(=O)N[C@@H](CCCNC(=N)N)C(=O)N[C@@H](Cc1ccccc1)C(=O)N[C@@H](CCCN)C(=O)N[C@@H](Cc1c[nH]c2ccccc12)C(=O)N[C@@H](CCCN)C(=O)N[C@@H](Cc1ccccc1)C(=O)N[C@@H](CCC(=O)O)C(=O)N[C@@H](CC(N)=O)C(=O)N[C@@H](CC(N)=O)C(N)=O [Peptide P11-16, CH3CO-N-N-R-F-O-W-O-F-E-N-N-NH2] (Ac-NNRF[Orn]W[Orn]FENN-NH2) | 1.2-3.9 μm | 109-220 nm | 0.5-1.6 μm | 5-10 nm | 11-20 nm | growing in contact with and onto the peptide gel matrix | +2 |  |
| CC(=O)N[C@@H](CC(N)=O)C(=O)N[C@@H](CC(N)=O)C(=O)N[C@@H](CCCNC(=N)N)C(=O)N[C@@H](Cc1ccccc1)C(=O)N[C@@H](CCC(=O)O)C(=O)N[C@@H](Cc1c[nH]c2ccccc12)C(=O)N[C@@H](CCC(=O)O)C(=O)N[C@@H](Cc1ccccc1)C(=O)N[C@@H](CCC(=O)O)C(=O)N[C@@H](CC(N)=O)C(=O)N[C@@H](CC(N)=O)C(N)=O [Peptide P11-15, CH3CO-N-N-R-F-E-W-E-F-E-N-N-NH2] (Ac-NNRFEWEFENN-NH2) | 1.3-4 μm | 118-220 nm | 0.3-1.2 μm | 5-7 nm | 7-10 nm | growing in contact with and onto the peptide gel matrix | −2 | support of cell growth (L929 fibroblast cells; L929 cells in peptide gels): moderately successful in supporting cell growth; macroscopic appearance of gel (L929 fibroblast cells; at end of cell culture experiment): little sign of macroscopic degradation |
| CC(=O)N[C@@H](CCC(N)=O)C(=O)N[C@@H](CCC(N)=O)C(=O)N[C@@H](CCCNC(=N)N)C(=O)N[C@@H](Cc1ccccc1)C(=O)N[C@@H](CCCN)C(=O)N[C@@H](Cc1c[nH]c2ccccc12)C(=O)N[C@@H](CCCN)C(=O)N[C@@H](Cc1ccccc1)C(=O)N[C@@H](CCC(=O)O)C(=O)N[C@@H](CCC(N)=O)C(=O)N[C@@H](CCC(N)=O)C(N)=O [Peptide P11-8, CH3CO-Q-Q-R-F-O-W-O-F-E-Q-Q-NH2] (Ac-QQRF[Orn]W[Orn]FEQQ-NH2) | 1.2-6.3 μm | 140-320 nm | 0.8-2.5 μm | 4-11 nm | 13-19 nm |  | +2 | fibril full pitch [1, 9]: 200-300 nm; fibril length [1, 9]: several micrometers; fibril narrow width [1, 9]: 4-5 nm; fibril wide width [1, 9]: 12-15 nm; conformation / solution state in water ([3]; pH<7 in water): monomeric random coil conformation; self-assembly in low ionic strength media ([3]; pH=7.5, peptide concentrations up to 10 mg/ml): does not self-assemble; effect on tissue surrounding the injection site by histology [4]: no effect; time for gel to reform after mechanical agitation ([5]; 15 mg/ml peptide gel): hours; time for gel to reform after mechanical agitation ([5]; 35 mg/ml peptide gel): seconds; fibrils and gels after sterilisation using an autoclave ([5]; cell media): reform after sterilisation using an autoclave; peptide concentration for homogeneous self-supporting gel ([5]; cell media): higher than 15 mg/ml; gel stability ([5]; room temperature, cell media): stable for at least several weeks |
| QQR^+FQWQFE^-QQ (QQRFQWQFEQQ; self assembling peptide P11-2) |  |  |  |  |  |  | 0 | inter-ribbon distance in the fibril, α [6]: 2-2.4 nm; inter-rod separation in a beta-sheet tape b2 [6]: 0.47 nm; tape width b1 [6]: 4 nm; cI/N, isotropic to nematic transition concentration [7]: ≈ 0.9 mM; persistence length of fibrils [8]: 20-70 μm; persistence length of ribbons [8]: 1 μm |
